Measured values as given in patent US9073916B2, “Prodrug forms of kinase inhibitors and their use in therapy” (AUCKLAND UNISERVICES LIMITED, priority 2009, dated 2015).
Read-outs that look alike come from different tables or passages of the source. Values belong to the compound of their own block, whether it stands above or below them.

Assays:
H1975 cells = assay: Cellular growth inhibition (sulforhodamine B); format: cell-based, Human; settings: for IC50: Homo sapiens, NCI-H1975
SKOV3 cells = assay: Cellular growth inhibition (sulforhodamine B); format: cell-based, Human; settings: Table 9; for IC50: Homo sapiens, SK-OV-3
H1975 xenografts = assay: In vivo efficacy in H1975 xenografts; design: species or system mice; settings: H1975 xenografts, q3dx4 at respective MTD, IP
Experimental: Specific pathogen-free homozygous female NIH-III nude mice (Charles River Laboratories, Wilmington, Mass.) were inoculated subcutaneously with a single cell suspension of H1975 cells (5×10^6 cells/100 μL; right flank). When H1975 tumour xenografts were established (typically 8-12 days) mice were randomized to treatment groups. All compounds were prepared in lactate buffer (pH4). Mice were dosed by intraperitoneal injection (0.01-0.03 ml/g) using the stated schedules and dose levels. For growth delay experiments mice were randomized to treatment and tumor volume [π(length×width^2)/6] and body weight were measured daily following treatment. […] Differences in RTV^4 were tested for statistical difference by Mann Whitney U test using SigmaStat v3.5.

[1] = Chemical stability by HPLC; settings: HPLC after 24 h at 37° C.
A431 cells = assay: Cellular growth inhibition (sulforhodamine B); settings: for IC50: Homo sapiens
erbB1 = erbB1 (Homo sapiens, UniProt P00533); assay: Inhibition of erbB1 autophosphorylation in EGF-stimulated intact A431 cells (Western blot)
Chain of erbB1 (P00533 25-1210): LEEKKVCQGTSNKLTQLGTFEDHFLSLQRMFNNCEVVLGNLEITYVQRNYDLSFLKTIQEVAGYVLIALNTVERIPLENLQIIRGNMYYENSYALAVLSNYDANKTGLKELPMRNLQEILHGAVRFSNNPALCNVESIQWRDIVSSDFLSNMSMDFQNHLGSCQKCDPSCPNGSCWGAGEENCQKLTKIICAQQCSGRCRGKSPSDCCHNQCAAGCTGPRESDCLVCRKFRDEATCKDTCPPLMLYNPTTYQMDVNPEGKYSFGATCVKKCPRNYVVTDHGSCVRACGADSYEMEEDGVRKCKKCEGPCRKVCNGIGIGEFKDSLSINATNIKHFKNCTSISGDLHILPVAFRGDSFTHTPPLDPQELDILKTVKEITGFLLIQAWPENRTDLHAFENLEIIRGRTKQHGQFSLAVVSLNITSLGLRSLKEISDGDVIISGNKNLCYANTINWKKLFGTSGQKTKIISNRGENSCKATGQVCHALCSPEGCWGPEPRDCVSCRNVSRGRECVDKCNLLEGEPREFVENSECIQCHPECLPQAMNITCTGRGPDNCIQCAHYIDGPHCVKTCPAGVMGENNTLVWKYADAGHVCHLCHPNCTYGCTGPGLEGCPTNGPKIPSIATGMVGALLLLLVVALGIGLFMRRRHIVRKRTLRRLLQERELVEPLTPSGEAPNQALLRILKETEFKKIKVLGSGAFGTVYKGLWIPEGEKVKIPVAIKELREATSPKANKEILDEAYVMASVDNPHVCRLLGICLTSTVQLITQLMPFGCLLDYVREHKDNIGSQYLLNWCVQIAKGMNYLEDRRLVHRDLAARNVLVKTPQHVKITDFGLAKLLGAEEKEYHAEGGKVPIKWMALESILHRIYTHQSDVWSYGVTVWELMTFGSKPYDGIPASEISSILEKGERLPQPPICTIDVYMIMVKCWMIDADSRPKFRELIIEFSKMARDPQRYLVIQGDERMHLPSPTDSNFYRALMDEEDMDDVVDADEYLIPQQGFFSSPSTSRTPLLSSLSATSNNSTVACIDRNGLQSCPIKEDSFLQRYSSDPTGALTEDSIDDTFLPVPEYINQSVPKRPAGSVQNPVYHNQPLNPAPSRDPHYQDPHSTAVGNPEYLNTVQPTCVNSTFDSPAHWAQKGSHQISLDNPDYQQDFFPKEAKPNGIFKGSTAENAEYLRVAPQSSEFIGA

SKBR3 cells = assay: Cellular growth inhibition (sulforhodamine B); format: cell-based, Human; settings: Table 3; for IC50: Homo sapiens, SK-BR-3
SW620 cells = assay: Cellular growth inhibition (sulforhodamine B); format: cell-based, Human; settings: Table 3; for IC50: Homo sapiens, SW-620
[2] = Pulse radiolysis (E(1) and fragmentation rate); format: physicochemical; settings: for kfrag. (fragmentation rate constant upon 1-electron reduction): benzyl-type radical formation; for E (1)/V (one-electron reduction potential): determined against methylviologen
Experimental: (§1) Pulse radiolysis was used to monitor the 1-electron reduction and stability of the compounds in real time. A linear accelerator delivering short pulses of high energy electrons (2-3 Gy in 200 ns of 4 MeV) equipped with a fast spectophotometric detection system was used. (Anderson et al, J. Phys. Chem. A, 101, 9704-9709, 1997). […] The rate of fragmentation was determined by analysing kinetic transients at wavelengths corresponding to the formation of the benzyl-type radical of the trigger moiety. (Bays et al, J. Am. Chem. Soc., 105, 320-324, 1983; Anderson et al, J. Phys. Chem. A, 101, 9704-9709, 1997).
The pulse radiolysis method, for example, measures the equilibrium constant between the radical anions of the prodrugs, formed upon their 1-electron reduction, and reference standards such as viologen and quinone compounds, from which data the E(1) values of the compounds can be calculated. (Meisel and Czapski. J. Phys. Chem., 1975, 79, 1503-1509.) The E(1) values of prodrugs 17-22, 140-145 were measured by the pulse radiolysis method and determined to range between −0.493V and −0.388V (Table 4).
The rate constants for fragmentation, kfrag, of the 1-electron reduced prodrugs can be measured using pulse radiolysis to observe the time-resolved formation of the absorption spectrum of the benzyl-type radical produced upon fragmentation of the radical anion. (Anderson et al, J. Phys. Chem. A, 1997, 101, 9704-9709.) The kfrag values of prodrugs 19, 20, 140, 141 and 143-145 were measured by pulse radiolysis and are presented in Table 4.
as §1, with “one-electron” for “1-electron”, “prodrug 42” for “the compounds”, “used.” for “used. (Anderson et al, J. Phys. Chem. A, 101, 9704-9709, 1997).”, “1997.)” for “1997).”

HT29 cells = assay: Cellular growth inhibition (sulforhodamine B); format: cell-based, Human; settings: Table 7; for IC50: Homo sapiens, HT-29
[3] = Steady state radiolytic reduction by the CO2.− radical with HPLC-MS; format: physicochemical; settings: for Detection of MNA (methyl nitroaromatic) / release of effector following 1-electron reduction: HPLC-MS; for % Loss of prodrug: HPLC-MS at 0.95 reducing equivalents; for release of effector following 1-electron reduction: steady state radiolysis
erbB2 = erbB2 (Homo sapiens, UniProt P04626); assay: Isolated enzyme inhibition (Invitrogen Z′-LYTE kinase assay); format: biochemical; settings: 10 μM ATP, duplicate
Chain of erbB2 (P04626 23-1255): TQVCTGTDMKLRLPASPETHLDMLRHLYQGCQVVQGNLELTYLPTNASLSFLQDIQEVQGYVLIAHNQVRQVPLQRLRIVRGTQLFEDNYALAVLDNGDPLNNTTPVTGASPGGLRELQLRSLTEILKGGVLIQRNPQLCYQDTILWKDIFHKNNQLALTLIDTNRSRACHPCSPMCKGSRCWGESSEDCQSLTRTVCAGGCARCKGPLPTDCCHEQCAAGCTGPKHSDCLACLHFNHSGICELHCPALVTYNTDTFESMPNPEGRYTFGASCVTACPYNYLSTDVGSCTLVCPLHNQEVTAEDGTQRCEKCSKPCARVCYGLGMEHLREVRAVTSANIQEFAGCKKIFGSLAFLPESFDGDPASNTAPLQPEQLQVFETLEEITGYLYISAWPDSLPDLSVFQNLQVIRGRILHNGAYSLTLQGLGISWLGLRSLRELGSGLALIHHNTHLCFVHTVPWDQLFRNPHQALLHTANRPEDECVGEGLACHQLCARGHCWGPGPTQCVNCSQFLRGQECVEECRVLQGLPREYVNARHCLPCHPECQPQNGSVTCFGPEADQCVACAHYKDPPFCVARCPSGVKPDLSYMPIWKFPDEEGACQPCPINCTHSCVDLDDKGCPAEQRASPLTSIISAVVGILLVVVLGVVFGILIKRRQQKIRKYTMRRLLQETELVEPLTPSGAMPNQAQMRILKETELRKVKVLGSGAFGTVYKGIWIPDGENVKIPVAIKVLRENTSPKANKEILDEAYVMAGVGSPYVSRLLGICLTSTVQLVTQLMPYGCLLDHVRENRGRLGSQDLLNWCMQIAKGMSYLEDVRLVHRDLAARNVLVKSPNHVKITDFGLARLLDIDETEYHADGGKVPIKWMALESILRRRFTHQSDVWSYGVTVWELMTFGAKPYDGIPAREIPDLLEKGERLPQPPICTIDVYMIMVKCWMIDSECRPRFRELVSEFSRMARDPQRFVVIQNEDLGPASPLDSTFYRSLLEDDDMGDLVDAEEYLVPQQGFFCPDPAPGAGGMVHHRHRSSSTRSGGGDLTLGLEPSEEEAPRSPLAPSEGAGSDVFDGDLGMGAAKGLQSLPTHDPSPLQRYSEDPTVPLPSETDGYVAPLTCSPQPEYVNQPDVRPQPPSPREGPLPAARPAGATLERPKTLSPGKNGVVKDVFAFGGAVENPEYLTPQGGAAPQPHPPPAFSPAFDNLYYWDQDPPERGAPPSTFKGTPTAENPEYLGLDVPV
Experimental: (§2) The compounds of Table 1 were tested for their ability to inhibit erbB1, erbB1^T790M, erbB2 and erbB4 in an isolated enzyme assay. This assay utilises synthetic FRET-capable peptide substrates. Phosphorylation of these substrates protects them from cleavage by a development reagent, leaving their FRET-capabilities intact. […] As a further consideration, for compounds capable of irreversible inhibition of an enzyme, the IC50 reflects both reversible and irreversible binding to the enzyme.

erbB4 = erbB4 (Homo sapiens, UniProt Q15303); assay: as above; format: biochemical; settings: 10 μM ATP, duplicate
Chain of erbB4 (Q15303 26-1308): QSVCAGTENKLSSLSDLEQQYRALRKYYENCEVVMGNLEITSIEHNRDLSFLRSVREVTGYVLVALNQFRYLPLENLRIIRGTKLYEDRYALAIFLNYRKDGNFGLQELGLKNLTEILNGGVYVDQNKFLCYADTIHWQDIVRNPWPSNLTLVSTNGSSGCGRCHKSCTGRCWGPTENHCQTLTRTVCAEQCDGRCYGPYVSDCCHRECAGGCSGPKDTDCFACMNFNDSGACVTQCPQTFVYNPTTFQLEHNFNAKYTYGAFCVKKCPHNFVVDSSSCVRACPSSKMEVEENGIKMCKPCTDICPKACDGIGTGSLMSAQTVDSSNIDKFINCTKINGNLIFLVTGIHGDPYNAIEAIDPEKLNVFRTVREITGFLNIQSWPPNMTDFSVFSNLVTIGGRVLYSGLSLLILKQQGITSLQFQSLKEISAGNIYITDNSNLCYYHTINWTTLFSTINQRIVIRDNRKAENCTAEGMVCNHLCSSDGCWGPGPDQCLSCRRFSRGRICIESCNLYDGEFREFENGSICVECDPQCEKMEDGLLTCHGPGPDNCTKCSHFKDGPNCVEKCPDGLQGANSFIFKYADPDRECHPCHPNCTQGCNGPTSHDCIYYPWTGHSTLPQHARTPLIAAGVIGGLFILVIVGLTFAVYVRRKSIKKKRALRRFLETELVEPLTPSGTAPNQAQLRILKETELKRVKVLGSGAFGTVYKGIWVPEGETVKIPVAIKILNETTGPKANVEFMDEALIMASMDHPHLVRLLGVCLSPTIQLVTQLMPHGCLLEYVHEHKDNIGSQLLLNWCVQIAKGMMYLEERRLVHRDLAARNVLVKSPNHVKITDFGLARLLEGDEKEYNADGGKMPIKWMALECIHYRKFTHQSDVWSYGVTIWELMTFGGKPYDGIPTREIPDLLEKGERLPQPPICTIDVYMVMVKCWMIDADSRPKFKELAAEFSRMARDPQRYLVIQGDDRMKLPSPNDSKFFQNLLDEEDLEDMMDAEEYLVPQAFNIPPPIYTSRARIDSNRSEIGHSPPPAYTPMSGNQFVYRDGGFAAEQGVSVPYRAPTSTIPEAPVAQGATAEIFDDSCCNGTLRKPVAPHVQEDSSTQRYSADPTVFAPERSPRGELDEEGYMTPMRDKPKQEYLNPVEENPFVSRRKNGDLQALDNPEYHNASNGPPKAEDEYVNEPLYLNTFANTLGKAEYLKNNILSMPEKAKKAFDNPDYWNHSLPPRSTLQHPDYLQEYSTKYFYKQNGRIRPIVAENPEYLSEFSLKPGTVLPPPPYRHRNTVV
Experimental: as §2

[4] = Table 9, 24 hour exposure oxic, read-out: Cellular Growth Inhibition IC50 H1975 Oxic
[5] = Table 9, first 4 hours anoxic, read-out: Cellular Growth Inhibition IC50 H1975 Anoxic
[6] = 24 hour exposure oxic, read-out: Cellular Growth Inhibition IC50 SKOV3 Oxic
[7] = first 4 hours anoxic, read-out: Cellular Growth Inhibition IC50 SKOV3 Anoxic
[8] = A-431, 4 h, read-out: Cellular Growth Inhibition IC50 A431 Anoxic
[9] = A-431, 24 h, read-out: Cellular Growth Inhibition IC50 A431 Oxic
[10] = 24 hour exposure entirely oxic, read-out: Cellular Growth Inhibition IC50 SKBR3 Oxic
[11] = first 4 hours anoxic, read-out: Cellular Growth Inhibition IC50 SKBR3 Anoxic
[12] = 24 hour exposure entirely oxic, read-out: Cellular Growth Inhibition IC50 SW620 Oxic
[13] = first 4 hours anoxic, read-out: Cellular Growth Inhibition IC50 SW620 Anoxic
[14] = A-431, read-out: Cellular Growth Inhibition IC50 A431 Anoxic
[15] = Table 7, 24 hour exposure oxic, read-out: Cellular Growth Inhibition IC50 H1975 Oxic
[16] = Table 7, initial 4 hours anoxic, read-out: Cellular Growth Inhibition IC50 H1975 Anoxic
[17] = 24 hour exposure oxic, read-out: Cellular Growth Inhibition IC50 HT29 Oxic
[18] = initial 4 hours anoxic, read-out: Cellular Growth Inhibition IC50 HT29 Anoxic

SMILES: C#Cc1cccc(Nc2ncnc3cnc(NC(=O)/C=C/C[N+](C)(C)Cc4c([N+](=O)[O-])ncn4C)cc23)c1 [Compound 58, (2E)-4-{[4-(3-ethynylanilino)pyrido[3,4-d]pyrimidin-6-yl]amino}-N,N-dimethyl-N-[(1-methyl-4-nitro-1H-imidazol-5-yl)methyl]-4-oxo-2-buten-1-ammonium bromide]
IC50 (H1975 cells; [4]): 98.9 µM | IC50 (H1975 cells; [5]): 3.81 µM | H1975 Deact. (H1975 cells; Table 9): 86 fold | H1975 HCR (H1975 cells; Table 9): 77.7 fold | IC50 (SKOV3 cells; [6]): 73.1 µM | IC50 (SKOV3 cells; [7]): 2.51 µM | SKOV3 Deact. (SKOV3 cells): 133 fold | SKOV3 HCR (SKOV3 cells): 38.5 fold | tumour growth inhibition (TGI) (H1975 xenografts): 171% | solubility (physchem; aqueous buffer): > 1280 µM | solubility (physchem; water): > 1280 µM | Stability PBS (percentage parent remaining) [1]: 78% | Stability Water (percentage parent remaining) [1]: 98% | Stability α-MEM + FCS (5%) (percentage parent remaining) [1]: 61% | IC50 (A431 cells; [8]): 0.035 µM | IC50 (A431 cells; [9]): 2 µM | A431 Deact. (A431 cells; Table 9): 74 fold | A431 HCR (A431 cells; Table 9): 77.9 fold | IC50 (erbB1): 0.513 µM | Deact. erbB1 (fold reduction in cellular inhibition relative to the parent kinase inhibitor) (erbB1; Table 8, A431 cells): 64 fold

IC50 (SKBR3 cells; [10]): 2.47 µM | IC50 (SKBR3 cells; [11]): 0.068 µM | IC50 (SW620 cells; [12]): 101 µM | IC50 (SW620 cells; [13]): 13.8 µM | E (1)/V (one-electron reduction potential) [2]: −0.427 V | melting point: 188 °C (dec.) | IC50 (A431 cells; [9]): 0.67 µM | IC50 (A431 cells; [14]): 0.025 µM | IC50 (erbB1): 1.2 µM | Deact. (fold reduction in cellular erbB1 inhibition relative to the parent kinase inhibitor) (erbB1; Table 2, A431 cells): 27 fold
SMILES: Cn1cnc([N+](=O)[O-])c1C[N+]1(C/C=C/C(=O)Nc2ccc3ncnc(Nc4cccc(Br)c4)c3c2)CCCCC1.[Br-] [Compound 23, 1-((2E)-4-{[4-(3-bromoanilino)-6-quinazolinyl]amino}-4-oxo-2-butenyl)-1-[(1-methyl-4-nitro-1H-imidazol-5-yl)methyl]piperidinium bromide]
SKBR3 Deact. (SKBR3 cells): 56 fold | SKBR3 HCR (SKBR3 cells): 36.1 fold | SW620 Deact. (SW620 cells): 27 fold | SW620 HCR (SW620 cells): 7.3 fold | kfrag. (fragmentation rate constant upon 1-electron reduction) [2]: 420 ± 60 s⁻¹ | A431 Deact. (fold reduction in oxic growth inhibition relative to parent kinase inhibitor) (A431 cells; Table 3): 65 fold | A431 HCR (Hypoxic Cytotoxicity Ratio) (A431 cells; Table 3): 26.9 fold

IC50 (H1975 cells; [15]): 17.9 µM | IC50 (H1975 cells; [16]): 2 µM | IC50 (HT29 cells; [17]): 7.8 µM | IC50 (HT29 cells; [18]): 1.5 µM | Detection of MNA (methyl nitroaromatic) [3]: Yes | % Loss of prodrug [3]: 69% | E (1)/V (one-electron reduction potential) [2]: −0.465 V | melting point: 176 to 178 °C | IC50 (A431 cells; [8]): 1 µM | IC50 (A431 cells; [9]): 42.8 µM
SMILES: Cn1cnc([N+](=O)[O-])c1C[N+]1(CCOc2ccc(Nc3ncc4cc(-c5c(Cl)cccc5Cl)c(=O)n(C)c4n3)cc2)CCCCC1.[Br-] [Compound 143, 1-[2-(4-{[6-(2,6-dichlorophenyl)-8-methyl-7-oxo-7,8-dihydropyrido[2,3-d]pyrimidin-2-yl]amino}phenoxy)ethyl]-1-[(1-methyl-4-nitro-1H-imidazol-5-yl)methyl]piperidinium bromide]
H1975 HCR (H1975 cells; Table 7): 9 fold | HT29 HCR (HT29 cells): 5 fold | release of effector following 1-electron reduction [3]: released their respective effector compounds | kfrag. (fragmentation rate constant upon 1-electron reduction) [2]: 170 ± 20 s⁻¹ | A431 HCR (A431 cells; Table 7): 43 fold

IC50 (SKBR3 cells; [10]): 0.028 µM | IC50 (SKBR3 cells; [11]): 0.027 µM | IC50 (SW620 cells; [12]): 2.02 µM | IC50 (SW620 cells; [13]): 2.46 µM | melting point: 179 to 181 °C | IC50 (A431 cells; [9]): 0.015 µM | IC50 (A431 cells; [14]): 0.009 µM
SMILES: COc1cc2ncnc(Nc3ccc(F)c(Cl)c3)c2cc1NC(=O)/C=C/CN(C)C [Compound 14, (2E)-N-[4-(3-chloro-4-fluoroanilino)-7-methoxy-6-quinazolinyl]-4-(dimethylamino)-2-butenamide]
SKBR3 HCR (SKBR3 cells): 1.1 fold | SW620 HCR (SW620 cells): 0.8 fold | A431 HCR (Hypoxic Cytotoxicity Ratio) (A431 cells; Table 3): 1.7 fold

IC50 (H1975 cells; [15]): 216 µM | IC50 (H1975 cells; [16]): > 100 µM | IC50 (HT29 cells; [17]): 154 µM | IC50 (HT29 cells; [18]): 119 µM | Detection of MNA (methyl nitroaromatic) [3]: No | % Loss of prodrug [3]: 8% | E (1)/V (one-electron reduction potential) [2]: −0.471 V | melting point: 252 °C (dec.) | IC50 (A431 cells; [8]): > 100 µM | IC50 (A431 cells; [9]): 555 µM
SMILES: Cn1cnc([N+](=O)[O-])c1C[n+]1ccc(Nc2ncc3cc(-c4c(Cl)cccc4Cl)c(=O)n(C)c3n2)cc1.[Br-] [Compound 142, 4-{[6-(2,6-dichlorophenyl)-8-methyl-7-oxo-7,8-dihydropyrido[2,3-d]pyrimidin-2-yl]amino}-1-[(1-methyl-4-nitro-1H-imidazol-5-yl)methyl]pyridinium bromide]
H1975 HCR (H1975 cells; Table 7): <3 fold | HT29 HCR (HT29 cells): 1 fold | release of effector following 1-electron reduction [3]: did not release their respective effector compounds | A431 HCR (A431 cells; Table 7): <6 fold

IC50 (erbB2): 0.074 µM | IC50 (erbB4): 0.113 µM | IC50 (SKBR3 cells; [10]): 3.19 µM | IC50 (SKBR3 cells; [11]): 5.51 µM | IC50 (SW620 cells; [12]): 18.6 µM | IC50 (SW620 cells; [13]): 19.6 µM | melting point: 180 to 182 °C | IC50 (A431 cells; [9]): 1.26 µM | IC50 (A431 cells; [14]): 1.3 µM
SMILES: CN(C)CCCC(=O)Nc1ccc2ncnc(Nc3cccc(Br)c3)c2c1 [Compound 16, N-[4-(3-bromoanilino)-6-quinazolinyl]-4-(dimethylamino)butanamide]
SKBR3 HCR (SKBR3 cells): 0.6 fold | SW620 HCR (SW620 cells): 0.9 fold

IC50 (H1975 cells; [4]): 1.15 µM | IC50 (H1975 cells; [5]): 1.12 µM | IC50 (SKOV3 cells; [6]): 0.55 µM | IC50 (SKOV3 cells; [7]): 0.74 µM | melting point: 163 to 166 °C | IC50 (A431 cells; [8]): 0.017 µM | IC50 (A431 cells; [9]): 0.027 µM | IC50 (erbB1): 0.008 µM
SMILES: C#Cc1cccc(Nc2ncnc3cnc(NC(=O)/C=C/CN(C)C)cc23)c1 [Compound 171, (2E)-4-(dimethylamino)-N-[4-(3-ethynylanilino)pyrido[3,4-d]pyrimidin-6-yl]-2-butenamide]
H1975 HCR (H1975 cells; Table 9): 1.1 fold | SKOV3 HCR (SKOV3 cells): 0.8 fold | A431 HCR (A431 cells; Table 9): 1.7 fold
